Test results from patent US7973080B2 (Ambria Dermatology AB, priority 2003, dated 2011).

Legend:
[1] = test system: methicillin-resistant Staphylococcus aureus; test: MIC by standard blood agar dilution technique; conditions: MR fuc +, met +
Excerpt: (§1) The following bacteria were investigated: methicillin-resistant Staphylococcus aureus (MSRA), fucidic acid-resistant S. aureus, non-resistant S. pyogenes, coagulation-negative staphylococci (for resistance, see Table 1 below) vancomycin-resistant enterococci (Enterococcus CCUG van A and van B), non-resistant Escherichia coli, Acinetobacter resistant against cefadroxil, nitrofurantin, mecillinam, Serratia maltophilia resistant against most types of antibiotics, Enterobacter (for resistance, see Table 1 below; additionally resistant against cefadroxil and nitrofurantin), non-resistant α-streptococci, non-resistant Streptococcus Group G, Pseudomonas aeruginosa (for resistance, see Table 2 below). Inocula of 10^3 and 10^5 bacteria were used.

S. maltophilia = test: MIC by standard blood agar dilution technique; conditions: inoculate size 10^3
Excerpt: as §1

SMILES: OCCCCCO [pentane-1,5-diol]
- MIC (% by weight of pentane-1,5-diol) ([1]; MRSA CCUG 41787, inoculate size 10^3): 12.5 % by weight
- MIC (% by weight of pentane-1,5-diol) ([1]; MRSA CCUG 41787, inoculate size 10^5): 17.5 % by weight
- MIC (% by weight of pentane-1,5-diol) ([1]; MRSA CCUG 45007, inoculate size 10^3): 10.0 % by weight
- MIC (% by weight of pentane-1,5-diol) ([1]; MRSA CCUG 45007, inoculate size 10^5): 12.5 % by weight
- MIC (% by weight of pentane-1,5-diol) ([1]; MRSA CCUG 45008, inoculate size 10^3): 12.5 % by weight
- MIC (% by weight of pentane-1,5-diol) ([1]; MRSA CCUG 45008, inoculate size 10^5): 15.0 % by weight
- MIC (% by weight of pentane-1,5-diol) ([1]; MRSA CCUG 46463, inoculate size 10^3): 10.0 % by weight
- MIC (% by weight of pentane-1,5-diol) ([1]; MRSA CCUG 46463, inoculate size 10^5): 15.0 % by weight
- MIC (% by weight of pentane-1,5-diol) ([1]; MRSA CCUG 46618, inoculate size 10^3): 12.5 % by weight
- MIC (% by weight of pentane-1,5-diol) ([1]; MRSA CCUG 46618, inoculate size 10^5): 15.0 % by weight
- MIC (% by weight of pentane-1,5-diol) ([1]; MRSA CCUG 46740, inoculate size 10^3): 12.5 % by weight
- MIC (% by weight of pentane-1,5-diol) ([1]; MRSA CCUG 46740, inoculate size 10^5): 17.5 % by weight
- MIC (% by weight of pentane-1,5-diol) ([1]; MRSA CCUG 46870, inoculate size 10^3): 10.0 % by weight
- MIC (% by weight of pentane-1,5-diol) ([1]; MRSA CCUG 46870, inoculate size 10^5): 17.5 % by weight
- MIC (% by weight of pentane-1,5-diol) ([1]; MRSA CCUG 47019, inoculate size 10^3): 10.0 % by weight
- MIC (% by weight of pentane-1,5-diol) ([1]; MRSA CCUG 47019, inoculate size 10^5): 17.5 % by weight
- MIC (% by weight of pentane-1,5-diol) ([1]; MRSA Cypem, inoculate size 10^3): 7.5 % by weight
- MIC (% by weight of pentane-1,5-diol) ([1]; MRSA Cypem, inoculate size 10^5): 10.0 % by weight
- MIC (% by weight of pentane-1,5-diol) ([1]; MRSA PB/SS, inoculate size 10^3): 12.5 % by weight
- MIC (% by weight of pentane-1,5-diol) ([1]; MRSA PB/SS, inoculate size 10^5): 15.0 % by weight
- MIC (% by weight of pentane-1,5-diol) (S. maltophilia; S. maltophilia 515 × 695): 5.0 % by weight
- MIC (% by weight of pentane-1,5-diol) (S. maltophilia; S. maltophilia 515 × 1269): 2.5 % by weight
- MIC (% by weight of pentane-1,5-diol) (S. maltophilia; S. maltophilia 516 × 679): 5.0 % by weight
- MIC (% by weight of pentane-1,5-diol) (S. maltophilia; S. maltophilia 900 × 1230): 5.0 % by weight
- MIC (% by weight of pentane-1,5-diol) (S. maltophilia; S. maltophilia 921 × 16157): 5.0 % by weight
